Laboratory results published in patent publication US11667652B2, “MCL1 inhibitors” (Gilead Sciences, Inc., priority 2019, dated 2023).
Read-outs that look alike come from different tables or passages of the source.

Experiments:
[1] = molecular target: MCL1/Bim (Homo sapiens (Human), UniProt Q07820); assay: MCL1/Bim Binding AlphaLISA Assay; settings: recombinant human 6xHis-MCL1 (171-327), biotinylated Bim peptide (51-76)
Procedure, shortened: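 AlphaLISA with 0.0625 nM human 6×His-MCL1 (171-327) and 0.0625 nM biotinylated Bim (51-76) peptide in 20 mM Hepes pH 7.5, 150 mM NaCl, 0.002% Brij 35, 1 mM DTT, 0.01% BSA. Compound preincubated with MCL1 1 h, Bim added 2 h, then acceptor and donor beads 1 h each; % inhibition versus DMSO and no-protein/peptide controls.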

[2] = tested on: SKBR3 cells; assay: SKBR3 Cell Viability Assay; assay type: cell-based; settings: CellTiter Glo, read-out: MCL1 CV SKBR3 EC50
Procedure, shortened: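 SKBR3 cells (6,000/well, McCoy's 5A + 10% FBS) were added onto pre-spotted serial compound dilutions and incubated 72 h at 37° C, 5% CO2. Viability was read by CellTiter-Glo luminescence, with % inhibition normalised to DMSO (negative) and 10 μM puromycin (positive).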

[3] = Homo sapiens, SK-BR-3, 72 hours

MCL1/Bim, sequence (Q07820 171-327): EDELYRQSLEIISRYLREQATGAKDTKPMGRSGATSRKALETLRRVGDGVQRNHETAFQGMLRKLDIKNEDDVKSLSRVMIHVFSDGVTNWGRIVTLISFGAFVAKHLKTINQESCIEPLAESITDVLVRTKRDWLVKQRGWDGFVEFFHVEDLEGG

IC50 [1] [nM] | EC50 [2, 3] [nM] | EC50 ([2]; 72 hours) [nM] | SMILES
0.047 | 13.8 |  | COCC(=O)O[C@H]1/C=C/[C@H](OC)[C@@H]2CC[C@H]2CN2C[C@@]3(CCCc4cc(Cl)ccc43)COc3ccc(cc32)C(=O)N=[S@](=O)(NC(=O)c2cn(C)nc2OC)C[C@H]1C [Example 73]
0.06 | 187 |  | COc1nn(C)cc1C(=O)N[S@@]1(=O)=NC(=O)c2ccc3c(c2)N(C[C@@H]2CC[C@H]2[C@@H](OC)/C=C/[C@H](OCc2ncccn2)[C@H](C)C1)C[C@@]1(CCCc2cc(Cl)ccc21)CO3 [Example 74]
0.217 | 171 |  | COCC#CCO[C@H]1/C=C/[C@H](OC)[C@@H]2CC[C@H]2CN2C[C@@]3(CCCc4cc(Cl)ccc43)COc3ccc(cc32)C(=O)N=[S@](=O)(NC(=O)c2cn(C)nc2OC)C[C@H]1C [Example 75]
0.048 | 24.1 |  | COCCOCCOCCO[C@H]1/C=C/[C@H](OC)[C@@H]2CC[C@H]2CN2C[C@@]3(CCCc4cc(Cl)ccc43)COc3ccc(cc32)C(=O)N=[S@](=O)(NC(=O)c2cn(C)nc2OC)C[C@H]1C [Example 76]
0.905 | 477 |  | COc1nn(C)cc1C(=O)N[S@@]1(=O)=NC(=O)c2ccc3c(c2)N(C[C@@H]2CC[C@H]2[C@@H](OC)/C=C/[C@H](Oc2ccccn2)[C@H](C)C1)C[C@@]1(CCCc2cc(Cl)ccc21)CO3 [Example 77]
0.679 | 1060 |  | COc1nn(C)cc1C(=O)N[S@@]1(=O)=NC(=O)c2ccc3c(c2)N(C[C@@H]2CC[C@H]2[C@@H](OC)/C=C/[C@H](Oc2ccncc2)[C@H](C)C1)C[C@@]1(CCCc2cc(Cl)ccc21)CO3 [Example 78]
0.062 |  | 42.9 | COc1nn(C)cc1C(=O)N[S@@]1(=O)=NC(=O)c2ccc3c(c2)N(C[C@@H]2CC[C@H]2[C@@H](OC)/C=C/[C@H](OCCN2CCN(C4COC4)CC2)[C@H](C)C1)C[C@@]1(CCCc2cc(Cl)ccc21)CO3 [Example 79]
0.253 | 27.5 |  | COc1nn(C)cc1C(=O)N[S@@]1(=O)=NC(=O)c2ccc3c(c2)N(C[C@@H]2CC[C@H]2[C@@H](OC)/C=C/[C@H](OCCN2CC(N(C)C)C2)[C@H](C)C1)C[C@@]1(CCCc2cc(Cl)ccc21)CO3 [Example 80]
0.011 | 6.3 |  | COc1nn(C)cc1C(=O)N[S@@]1(=O)=NC(=O)c2ccc3c(c2)N(C[C@@H]2CC[C@H]2[C@@H](OC)/C=C/[C@H](OCCN2CC(OC)C2)[C@H](C)C1)C[C@@]1(CCCc2cc(Cl)ccc21)CO3 [Example 81]
0.041 | 53.6 |  | COc1nn(C)cc1C(=O)N[S@@]1(=O)=NC(=O)c2ccc3c(c2)N(C[C@@H]2CC[C@H]2[C@@H](OC)/C=C/[C@H](OCCN2CCN(C)CC2)[C@H](C)C1)C[C@@]1(CCCc2cc(Cl)ccc21)CO3 [Example 82]
0.1 | 99.1 |  | COc1nn(C)cc1C(=O)N[S@@]1(=O)=NC(=O)c2ccc3c(c2)N(C[C@@H]2CC[C@H]2[C@@H](OC)/C=C/[C@H](OCc2nccn2C)[C@H](C)C1)C[C@@]1(CCCc2cc(Cl)ccc21)CO3 [Example 83]
0.099 | 90 |  | COc1nn(C)cc1C(=O)N[S@@]1(=O)=NC(=O)c2ccc3c(c2)N(C[C@@H]2CC[C@H]2[C@@H](OC)/C=C/[C@H](OCc2ccncc2)[C@H](C)C1)C[C@@]1(CCCc2cc(Cl)ccc21)CO3 [Example 84]
0.085 | 164 |  | COc1nn(C)cc1C(=O)N[S@@]1(=O)=NC(=O)c2ccc3c(c2)N(C[C@@H]2CC[C@H]2[C@@H](OC)/C=C/[C@H](OCc2cn(C)cn2)[C@H](C)C1)C[C@@]1(CCCc2cc(Cl)ccc21)CO3 [Example 85]
0.088 | 64.6 |  | COc1nn(C)cc1C(=O)N[S@@]1(=O)=NC(=O)c2ccc3c(c2)N(C[C@@H]2CC[C@H]2[C@@H](OC)/C=C/[C@H](OCCN2CC4(COC4)C2)[C@H](C)C1)C[C@@]1(CCCc2cc(Cl)ccc21)CO3 [Example 86]
0.19 | 1090 |  | COc1nn(C)cc1C(=O)N[S@@]1(=O)=NC(=O)c2ccc3c(c2)N(C[C@@H]2CC[C@H]2[C@@H](OC)/C=C/[C@H](OCCN2CC4(CN(C)C4)C2)[C@H](C)C1)C[C@@]1(CCCc2cc(Cl)ccc21)CO3 [Example 87]
